These results are taken from US6982279B2, “Arylated furan- and thiophenecarboxamides, processes for their preparation, their use as medicaments, and pharmaceutical preparations comprising them” (Aventis Pharm Deutschland GmbH, priority 2000, dated 2006).

In this experiment the target is T1, Kv1.5 channels from humans (Homo sapiens, UniProt P22460).
T1 construct: expressed in transfected cells; host or cells: Xenopus laevis oocytes injected with in vitro synthesized RNA
As to the kind of experiment: Kv1.5 currents in Xenopus oocytes, 2-microelectrode voltage clamp. Type of experiment: cell-based. Conditions: human Kv1.5 expressed in Xenopus laevis oocytes; voltage jumps to 0 mV and 40 mV lasting 500 ms; room temperature; Hill equation. On the procedure:
Kv1.5 channels from humans were expressed in Xenopus oocytes. To this end, oocytes from Xenopus laevis were first isolated and defolliculated. RNA coding for Kv1.5 synthesized in vitro was then injected into these oocytes. After a Kv1.5 protein expression for 1-7 days, Kv1.5 currents were measured on the oocytes using the 2-microelectrode voltage clamp technique. The Kv1.5 channels were in this case as a rule activated using voltage jumps to 0 mV and 40 mV lasting 500 ms. The bath was rinsed using a solution of the following composition: NaCl 96 mM, KCl 2 mM, CaCl2 1.8 mM, MgCl2 1 mM, HEPES 5 mM (titrated with NaOH to pH 7.4). These experiments were carried out at room temperature. The following were employed for data acquisition and analysis: Gene clamp amplifier (Axon Instruments, Foster City, USA) and MacLab D/A converter and software (ADInstruments, Castle Hill, Australia). The substances according to the invention were tested by adding them to the bath solution in different concentrations. The effects of the substances were calculated as the percentage inhibition of the Kv1.5 control current which was obtained when no substance was added to the solution. The data were then extrapolated using the Hill equation in order to determine the inhibition concentrations IC50 for the respective substances.

SMILES strings stand for the structures. Some results are limits rather than exact numbers.

T1 sequence (P22460 whole entry): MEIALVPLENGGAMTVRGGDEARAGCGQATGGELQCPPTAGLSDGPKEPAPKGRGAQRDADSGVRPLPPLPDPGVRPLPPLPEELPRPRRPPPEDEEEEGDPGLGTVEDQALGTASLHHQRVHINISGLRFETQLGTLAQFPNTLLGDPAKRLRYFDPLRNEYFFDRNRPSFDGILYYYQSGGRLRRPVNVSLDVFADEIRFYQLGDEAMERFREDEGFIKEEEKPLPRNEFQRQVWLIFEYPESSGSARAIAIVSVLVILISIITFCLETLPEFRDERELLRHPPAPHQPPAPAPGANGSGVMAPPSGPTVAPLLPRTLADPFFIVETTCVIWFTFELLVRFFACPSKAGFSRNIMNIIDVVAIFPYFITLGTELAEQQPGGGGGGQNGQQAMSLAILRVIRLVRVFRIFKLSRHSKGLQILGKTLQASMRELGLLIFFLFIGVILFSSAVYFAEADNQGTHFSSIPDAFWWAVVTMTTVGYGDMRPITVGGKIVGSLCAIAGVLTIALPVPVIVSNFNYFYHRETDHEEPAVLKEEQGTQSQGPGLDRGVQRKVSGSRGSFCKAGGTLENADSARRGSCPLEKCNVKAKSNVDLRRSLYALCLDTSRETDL

On to `CC(C)CCNC(=O)c1sccc1-c1ccccc1CNC(=O)OC(C)(C)C` [Example 1, tert-Butyl {2-[2-(3-methylbutylcarbamoyl)thiophen-3-yl]benzyl}carbamate], for which half-maximal inhibition (IC50) was put at 4 µM.
The same measure for `CC(C)(C)OC(=O)NCc1ccccc1-c1sccc1C(=O)NCc1ccc(F)cc1F` [Example 5]: 3.1 µM; for `COc1ccc(CC(=O)NCc2ccccc2-c2ccoc2C(=O)NCc2ccc(F)cc2F)cc1` [Example 21]: 3.9 µM.
On to `O=C(NCc1ccccc1-c1ccc(C(=O)NCc2ccc(F)cc2F)o1)OCc1ccccc1` [Example 19], for which the IC50 (in general, the concentration needed to halve the response being measured) is < 100 µM.
With `CC(C)(C)OC(=O)NCc1ccccc1-c1ccc(C(=O)NCc2ccc(F)cc2F)o1` [Example 9], the half-maximal inhibitory concentration (IC50) is < 100 µM.
The molecule `O=C(NCc1ccccc1-c1sccc1C(=O)NCc1ccc(F)cc1F)OCc1ccccc1` [Example 16] gave an IC50 of 1.9 µM.
In the case of `CC(C)(C)OC(=O)NCc1ccccc1-c1ccoc1C(=O)NCc1ccc(F)cc1F` [Example 3], the IC50 was 9 µM.
For `CC(C)(C)OC(=O)NCc1ccccc1-c1occc1C(=O)NCc1ccc(F)cc1F` [Example 7], half-maximal inhibition (IC50) required 10 µM.
The value for `COc1ccc(CC(=O)NCc2ccccc2-c2occc2C(=O)NCc2ccc(F)cc2F)cc1` [Example 27] was 6.6 µM.
The same measure for `CC(C)CCNC(=O)c1ccsc1-c1ccccc1CNC(=O)OC(C)(C)C` [Example 6]: < 100 µM.
The value for `COc1ccc(CC(=O)NCc2ccccc2-c2ccc(C(=O)NCCC(C)C)o2)cc1` [Example 28] was < 100 µM; that for `COc1ccc(CC(=O)NCc2ccccc2-c2sccc2C(=O)NCc2ccc(F)cc2F)cc1` [Example 25] was 1.5 µM; that for `COc1ccc(CC(=O)NCc2ccccc2-c2ccc(C(=O)NCc3ccc(F)cc3F)o2)cc1` [Example 29] was 4.2 µM.
The molecule `COc1ccc(CC(=O)NCc2ccccc2-c2sccc2C(=O)NCCC(C)C)cc1` [Example 24] had a half-maximal inhibitory concentration (IC50) of 2.2 µM.
The value for `CC(C)CCNC(=O)c1occc1-c1ccccc1CNC(=O)OCc1ccccc1` [Example 13] was 5.6 µM; that for `CC(C)CCNC(=O)c1ccsc1-c1ccccc1CNC(=O)OCc1ccccc1` [Example 15] was 1.2 µM.
In turn, `COc1ccc(CC(=O)NCc2ccccc2-c2ccsc2C(=O)NCc2ccc(F)cc2F)cc1` [Example 23] came in with an IC50 of 1.2 µM.
With `CC(C)CCNC(=O)c1ccc(-c2ccccc2CNC(=O)OC(C)(C)C)o1` [Example 10], the half-inhibitory concentration (IC50) was < 100 µM.
For the molecule `COc1ccc(CC(=O)NCc2ccccc2-c2ccoc2C(=O)NCCC(C)C)cc1` [Example 20], the IC50 is < 100 µM.
In turn, `CC(C)CCNC(=O)c1ccoc1-c1ccccc1CNC(=O)OC(C)(C)C` [Example 8] returned a half-inhibitory concentration (IC50) of 5.2 µM. In other words, the single-digit micromolar range.
With `O=C(NCc1ccccc1-c1occc1C(=O)NCc1ccc(F)cc1F)OCc1ccccc1` [Example 18], the IC50 amounted to 5.2 µM. In other words, the single-digit micromolar range.
The value for `O=C(NCc1ccccc1-c1ccoc1C(=O)NCc1ccc(F)cc1F)OCc1ccccc1` [Example 14] was < 100 µM.
The value for `CC(C)CCNC(=O)c1occc1-c1ccccc1CNC(=O)OC(C)(C)C` [Example 4] was 10 µM.
The same measure for `O=C(NCc1ccccc1-c1ccsc1C(=O)NCc1ccc(F)cc1F)OCc1ccccc1` [Example 12]: 2 µM.
Turning to `CC(C)CCNC(=O)c1sccc1-c1ccccc1CNC(=O)OCc1ccccc1` [Example 11, Benzyl {2-[2-(3-methylbutylcarbamoyl)thiophen-3-yl]-benzyl}carbamate], the IC50 is 3 µM.
On to `CC(C)(C)OC(=O)NCc1ccccc1-c1ccsc1C(=O)NCc1ccc(F)cc1F` [Example 2], for which the half-inhibitory concentration (IC50) turned out to be 5 µM. Compared with the last molecule, the IC50 is about 1.7-fold higher.
The same measure for `COc1ccc(CC(=O)NCc2ccccc2-c2occc2C(=O)NCCC(C)C)cc1` [Example 26]: 3.9 µM; for `COc1ccc(CC(=O)NCc2ccccc2-c2ccsc2C(=O)NCCC(C)C)cc1` [Example 22]: 1.7 µM.
With `CC(C)CCNC(=O)c1ccoc1-c1ccccc1CNC(=O)OCc1ccccc1` [Example 17], the IC50 turned out to be 2.2 µM.
